Laboratory results published in ChEMBL document CHEMBL5579902, “Medullins A-H, Sesquiterpenes from Perenniporia medulla-panis, and Their Cellular Signaling Mechanism in HDF Cells” (J Nat Prod, 2024).
Active and inactive are the calls of the source. No cut-off for these calls is given here.

Assays:
HDF [1] = assay: Induction of p38 phosphorylation in HDF cells at 10 uM incubated at 0.5 to 24 hrs by Western blot analysis; type: cell-based; conditions: Homo sapiens, time 0.5-24 hrs
NHDF = assay: Cytotoxicity against HDF cells assessed as reduction in cell viability at 10 uM incubated for 24 to 48 hrs by MTT assay; type: toxicity, cell-based; conditions: human, time 24-48 hrs
HDF [2] = assay: Induction of JNK phosphorylation in HDF cells at 10 uM incubated at 0.5 to 24 hrs by Western blot analysis; type: cell-based; conditions: Homo sapiens, filed as activator, time 0.5-24 hrs
[3] = biological target: Mitogen-activated protein kinase; ERK1/ERK2 (Homo sapiens) (UniProt P27361+P28482); assay: Induction of ERK1/2 phosphorylation in HDF cells at 10 uM incubated at 0.5 to 24 hrs by Western blot analysis; type: cell-based; conditions: filed as activator, time 0.5-24 hrs
Chain of Mitogen-activated protein kinase; ERK1/ERK2 (Homo sapiens) (P27361 whole entry, looked up): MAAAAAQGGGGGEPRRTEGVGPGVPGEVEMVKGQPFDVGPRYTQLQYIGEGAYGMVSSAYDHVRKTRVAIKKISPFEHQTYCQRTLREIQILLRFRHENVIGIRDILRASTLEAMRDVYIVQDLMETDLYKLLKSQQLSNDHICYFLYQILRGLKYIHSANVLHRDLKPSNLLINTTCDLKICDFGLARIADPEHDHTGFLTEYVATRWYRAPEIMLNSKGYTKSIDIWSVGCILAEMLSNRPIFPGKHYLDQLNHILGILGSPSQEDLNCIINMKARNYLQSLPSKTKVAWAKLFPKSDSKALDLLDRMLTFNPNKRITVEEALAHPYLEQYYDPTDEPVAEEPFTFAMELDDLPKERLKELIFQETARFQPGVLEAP
Chain of Mitogen-activated protein kinase; ERK1/ERK2 (Homo sapiens) (P28482 whole entry, looked up): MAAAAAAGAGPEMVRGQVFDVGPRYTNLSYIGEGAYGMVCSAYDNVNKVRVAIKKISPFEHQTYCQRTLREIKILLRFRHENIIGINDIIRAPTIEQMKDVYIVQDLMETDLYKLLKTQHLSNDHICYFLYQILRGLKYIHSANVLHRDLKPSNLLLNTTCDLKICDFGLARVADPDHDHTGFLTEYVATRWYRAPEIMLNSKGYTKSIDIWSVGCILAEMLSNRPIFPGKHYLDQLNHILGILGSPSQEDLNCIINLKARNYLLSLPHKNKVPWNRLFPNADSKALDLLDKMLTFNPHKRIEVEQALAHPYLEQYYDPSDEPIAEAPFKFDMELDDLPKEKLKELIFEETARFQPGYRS

Row | Activity [3] | SMILES | Activity (HDF [1]) | Activity (NHDF) | Activity (HDF [2])
1 | Active | CC(=O)O[C@@H]1[C@H](O)C2=C(C(=O)N([C@@H](Cc3ccccc3)C(=O)O)C2)[C@@]2(C)CCCC(C)(C)[C@H]12 | inactive | Non-Toxic | Active
2 | Active | CC(=O)O[C@@H]1[C@H](O)C2=C(C(=O)N([C@@H](CC(C)C)C(=O)O)C2)[C@@]2(C)CCCC(C)(C)[C@H]12 | inactive | Non-Toxic | Active
3 | Active | CC(=O)O[C@@H]1[C@H](O)C2=C(C(=O)N([C@@H](C)C(=O)O)C2)[C@@]2(C)CCCC(C)(C)[C@H]12 | inactive | Non-Toxic | Active

Continued, molecule first:

Row | SMILES | Activity [3] | Activity (HDF [1]) | Activity (NHDF) | Activity (HDF [2])
4 | CC[C@H](C)[C@@H](C(=O)O)N1CC2=C(C1=O)[C@@]1(C)CCCC(C)(C)[C@@H]1[C@H](OC(C)=O)[C@@H]2O | Active | inactive | Non-Toxic | Active
5 | CC(=O)O[C@@H]1[C@H](O)C2=C(C(=O)N([C@H](C(=O)O)C(C)C)C2)[C@@]2(C)CCCC(C)(C)[C@H]12 | Active | inactive | Non-Toxic | Active
6 | CC(=O)O[C@@H]1[C@H](O)C2=C(C(=O)N([C@H](C(=O)O)[C@@H](C)O)C2)[C@@]2(C)CCCC(C)(C)[C@H]12 | Active | inactive | Non-Toxic | Active
7 | CC(=O)O[C@@H]1[C@H](O)C2=C(C(=O)N(CC(=O)O)C2)[C@@]2(C)CCCC(C)(C)[C@H]12 | Active | inactive | Non-Toxic | Active
